The text below walks through data of patent US9018206B2, “Carboxamide compounds and their use as calpain inhibitors” (AbbVie Deutschland GmbH & Co. KG, priority 2009, dated 2015).

Assay type in all cases: biochemical
The target of assay [1] is T1, cathepsin K activated from recombinant human procathepsin K (Homo sapiens, UniProt P43235).
T1 construct: purchased Calbiochem 342001; host or cells: E. coli
T1 sequence (P43235 115-329): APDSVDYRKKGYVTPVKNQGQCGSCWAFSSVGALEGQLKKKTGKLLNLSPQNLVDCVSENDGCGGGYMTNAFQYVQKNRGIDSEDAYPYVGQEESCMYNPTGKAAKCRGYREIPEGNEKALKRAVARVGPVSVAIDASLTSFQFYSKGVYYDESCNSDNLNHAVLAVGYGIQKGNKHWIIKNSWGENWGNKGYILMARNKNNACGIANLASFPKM
Nature of the assay: Cathepsin K enzyme inhibition in vitro (kinetic fluorescence assay). The note with it: Ki(cathepsin K)/Ki(calpain) ratio. How it is done:
(§1) Testing for blockade of the corresponding enzymic activities was carried out by means of kinetic fluorescence assays (excitation 390 nm, emission 460 nm).
(§2) Apparent Ki values were calculated from the experimentally determined IC50 values by the Cheng-Prussoff relation assuming a reversible competitive enzyme inhibition. The Km values of the substrates used under the assay conditions indicated above were: 90 μM (Z-Phe-Arg-AMC, cathepsin B), 10 μM (Z-Gly-Pro-Arg-AMC, cathepsin K), 2 μM (Z-Phe-Arg-AMC, cathepsin L), and 30 μM (Z-Val-Val-Arg-AMC, cathepsin S).
(§3) The indicated Ki values are averages of the inhibition constants calculated on the basis of 2 to 4 independent dose-effect plots.
(§4) • 20 nM calpain-I—isolated from human erythrocytes (Calbiochem #208713), 100 μM Suc-Leu-Tyr-AMC (Bachem #I-1355) as substrate in buffer with 62 mM imidazole, 0.3 mM CaCl2, 0.10% CHAPS, 0.05% BSA, 1 mM DTT at pH 7.3 and room temperature. 1. Cathepsin B: • 0.25 nM cathepsin B—isolated from human liver (Calbiochem #219362), 100 μM Z-Phe-Arg-AMC (Bachem #I-1160) as substrate 50 mM MES, 2 mM EDTA, 0.05% Brij 35, 2.5 mM L-cysteine, pH 6.0, room temperature. 3. Cathepsin K: • 3 nM cathepsin K activated from recombinant human procathepsin K from E. coli (Calbiochem #342001), 10 μM Z-Gly-Pro-Arg-AMC (Biomol #P-142) as substrate in 50 mM MES, 2 mM EDTA, 0.05% Brij 35, 2.5 mM L-cysteine, pH 6.0, room temperature. 4. Cathepsin L: • 1 nM cathepsin L—isolated from human liver (Calbiochem #219402), 2 μM Z-Phe-Arg-AMC (Bachem #I-1160) as substrate in 50 mM MES, 2 mM EDTA, 0.05% Brij 35, 2.5 mM L-cysteine, pH 6.0, room temperature. 5. Cathepsin S: • 0.5 nM recombinant human cathepsin S from E. coli (Calbiochem #219343), 20 μM Z-Val-Val-Arg-AMC (Bachem #I-1540) as substrate in 50 mM MES, 2 mM EDTA, 0.05% Brij 35, 2.5 mM L-cysteine, pH 6.0, room temperature.

The target of assay [2] is T2, calpain-I isolated from human erythrocytes (Homo sapiens, UniProt P07384).
T2 construct: calpain-I—isolated from human erythrocytes; purchased Calbiochem 208713; host or cells: human erythrocytes (tissue-derived)
T2 sequence (P07384 1-714): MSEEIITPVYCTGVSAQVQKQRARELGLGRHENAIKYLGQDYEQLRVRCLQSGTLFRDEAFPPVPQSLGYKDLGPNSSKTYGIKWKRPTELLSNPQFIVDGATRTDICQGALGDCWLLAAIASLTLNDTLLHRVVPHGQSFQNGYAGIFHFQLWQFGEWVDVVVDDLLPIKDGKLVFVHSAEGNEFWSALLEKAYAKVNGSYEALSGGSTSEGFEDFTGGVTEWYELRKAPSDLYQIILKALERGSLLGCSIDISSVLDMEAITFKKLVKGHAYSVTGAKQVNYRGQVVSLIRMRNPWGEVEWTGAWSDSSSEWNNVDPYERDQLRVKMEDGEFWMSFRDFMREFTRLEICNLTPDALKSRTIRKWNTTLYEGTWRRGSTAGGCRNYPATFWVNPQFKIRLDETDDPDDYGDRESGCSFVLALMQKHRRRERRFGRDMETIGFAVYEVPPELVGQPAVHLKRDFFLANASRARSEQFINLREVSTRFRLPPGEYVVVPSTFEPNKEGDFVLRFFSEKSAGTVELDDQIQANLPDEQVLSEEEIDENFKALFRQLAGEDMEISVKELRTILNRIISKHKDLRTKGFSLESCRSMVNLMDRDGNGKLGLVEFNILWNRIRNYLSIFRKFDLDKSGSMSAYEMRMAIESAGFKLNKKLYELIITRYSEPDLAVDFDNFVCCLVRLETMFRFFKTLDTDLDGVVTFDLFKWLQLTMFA
T2 sequence (P04632 1-268 partner): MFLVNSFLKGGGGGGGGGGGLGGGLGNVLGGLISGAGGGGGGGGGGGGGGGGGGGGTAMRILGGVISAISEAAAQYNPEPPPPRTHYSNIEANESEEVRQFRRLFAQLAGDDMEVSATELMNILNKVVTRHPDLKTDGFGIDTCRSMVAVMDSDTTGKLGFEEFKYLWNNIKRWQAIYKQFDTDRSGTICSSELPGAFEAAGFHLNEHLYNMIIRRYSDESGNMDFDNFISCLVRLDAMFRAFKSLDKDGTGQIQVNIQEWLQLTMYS
Nature of the assay: Calpain I enzyme inhibition in vitro (kinetic fluorescence assay). The note with it: apparent Ki from IC50 (Cheng-Prussoff); 20 nM calpain-I, 100 μM Suc-Leu-Tyr-AMC, pH 7.3, room temperature. How it is done:
as §1, §2, §3, §4

Assay [3] addresses T3, recombinant human cathepsin S (Homo sapiens, UniProt P25774).
T3 construct: purchased Calbiochem 219343; host or cells: E. coli
Nature of the assay: Cathepsin S enzyme inhibition in vitro (kinetic fluorescence assay). The note with it: Ki(cathepsin S)/Ki(calpain) ratio. How it is done: as §1, §2, §3, §4

Assay [4] deals with T4, cathepsin B isolated from human liver (Homo sapiens, UniProt P07858).
T4 construct: cathepsin B—isolated from human liver; purchased Calbiochem 219362; host or cells: human liver (tissue-derived)
Nature of the assay: Cathepsin B enzyme inhibition in vitro (kinetic fluorescence assay). The note with it: Ki(cathepsin B)/Ki(calpain) ratio. How it is done: as §1, §2, §3, §4

Bounds are passed on as bounds.

T3 sequence (P25774 115-331): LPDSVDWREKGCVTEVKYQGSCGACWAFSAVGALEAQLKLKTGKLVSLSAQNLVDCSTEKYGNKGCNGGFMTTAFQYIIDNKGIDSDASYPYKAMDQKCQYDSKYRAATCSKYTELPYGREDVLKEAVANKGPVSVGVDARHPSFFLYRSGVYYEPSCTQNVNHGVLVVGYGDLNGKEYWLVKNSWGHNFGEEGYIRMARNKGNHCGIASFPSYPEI

For the compound `O=C(NCCc1ccccn1)C(=O)C(Cc1ccccc1)NC(=O)[C@H]1CCC(=O)N1Cc1ccccc1` (mixture of isomers) [Example 31, (2R)-1-Benzyl-N-(3,4-dioxo-1-phenyl-4-(2-(pyridin-2-yl)-ethylamino)butan-2-yl)-5-oxopyrrolidine-2-carboxamide], in assay [1], the “Sel cat. K” value is reported as “++ (10<Ki(cathepsin B)/Ki(calpain)≦30)”. The Ki in assay [2] lay within 100 to 600 nM. The “Sel cat. S” value in assay [3] is reported as “++ (30<Ki(cathepsin B)/Ki(calpain)≦100)”. For `O=C(NCCCc1ccccn1)C(=O)C(Cc1ccccc1)NC(=O)[C@H]1CCC(=O)N1Cc1ccccc1` (mixture of isomers) [Example 32, (2R)-1-Benzyl-N-(3,4-dioxo-1-phenyl-4-(3-(pyridin-2-yl)propylamino)butan-2-yl)-5-oxopyrrolidine-2-carboxamide], the “Sel cat. B” value in assay [4] is listed as “++ (10<Ki(cathepsin B)/Ki(calpain)≦30)”. In addition, the “Sel cat. K” value in assay [1] is recorded as “+ (5<Ki(cathepsin K)/Ki(calpain)≦10)”. Also, the Ki in assay [2] is 50 to 100 nM. The “Sel cat. S” value in assay [3] is on record as “++ (30<Ki(cathepsin B)/Ki(calpain)≦100)”. For `O=C(NCCCc1ccccc1)C(=O)C(Cc1ccccc1)NC(=O)[C@H]1CCC(=O)N1Cc1ccccc1` (mixture of isomers) [Example 33, (2R)-1-Benzyl-N-(3,4-dioxo-1-phenyl-4-(3-phenylpropylamino)butan-2-yl)-5-oxopyrrolidine-2-carboxamide] the same measures were “++ (10<Ki(cathepsin B)/Ki(calpain)≦30)”, “++ (10<Ki(cathepsin B)/Ki(calpain)≦30)”, 50 to 100 nM and “++ (30<Ki(cathepsin B)/Ki(calpain)≦100)”. For the compound `O=C(NCc1cncs1)C(=O)C(Cc1ccccc1)NC(=O)[C@H]1CCC(=O)N1Cc1ccccc1` (mixture of isomers) [Example 52, (2R)-1-Benzyl-N-(3,4-dioxo-1-phenyl-4-(thiazol-5-ylmethylamino)butan-2-yl)-5-oxopyrrolidine-2-carboxamide], the Ki in assay [2] is 100 to 600 nM.

With `O=C(C(=O)N1CCOCC1)C(Cc1ccccc1)NC(=O)[C@H]1CCC(=O)N1Cc1ccccc1` (mixture of isomers) [Example 54, (2R)-1-Benzyl-N-(4-morpholino-3,4-dioxo-1-phenylbutan-2-yl)-5-oxopyrrolidine-2-carboxamide], the Ki in assay [2] was 100 to 600 nM. Still for that read-out and setting: as for `CCNC(=O)C(=O)C(Cc1ccccc1)NC(=O)[C@H]1CCC(=O)N1Cc1ccc(C(F)(F)F)cc1` (mixture of isomers) [Example 55, (2R)—N-(4-(ethylamino)-3,4-dioxo-1-phenylbutan-2-yl)-5-oxo-1-(4-(trifluoromethyl)benzyl)pyrrolidine-2-carboxamide], the figure is 100 to 600 nM. Consider `O=C(NC[C@H]1CCCO1)C(=O)C(Cc1ccccc1)NC(=O)[C@H]1CCC(=O)N1Cc1ccccc1` (mixture of isomers) [Example 69, (2R)-1-Benzyl-N-(3,4-dioxo-1-phenyl-4-(((R)-tetrahydrofuran-2-yl)methylamino)-butan-2-yl)-5-oxopyrrolidine-2-carboxamide], for which the Ki in assay [2] fell in the range of 100 to 600 nM. As for `O=C(NCc1ccco1)C(=O)C(Cc1ccccc1)NC(=O)[C@H]1CCC(=O)N1Cc1ccccc1` (mixture of isomers) [Example 72, (2R)-1-Benzyl-N-(4-(furan-2-ylmethylamino)-3,4-dioxo-1-phenylbutan-2-yl)-5-oxopyrrolidine-2-carboxamide], in assay [2], the Ki fell in the range of 50 to 100 nM. Still for that read-out and setting: as for `COc1cccc(C(F)(F)F)c1CN1C(=O)CC[C@@H]1C(=O)NC(Cc1ccccc1)C(=O)C(=O)NC1CC1` (mixture of isomers) [Example 74, (2R)—N-(4-(Cyclopropylamino)-3,4-dioxo-1-phenylbutan-2-yl)-1-(2-methoxy-6-(trifluoromethyl)benzyl)-5-oxopyrrolidine-2-carboxamide], the figure is 100 to 600 nM; as for `O=C(NCCc1ccsc1)C(=O)C(Cc1ccccc1)NC(=O)[C@H]1CCC(=O)N1Cc1ccccc1` (single isomer, unassigned) [Example 71], less than 50 nM. Consider `NC(=O)C(=O)C(Cc1ccccc1)NC(=O)c1cccc(=O)n1Cc1ccccc1` (stereo not shown) [Example 4, N-(4-Amino-3,4-dioxo-1-phenylbutan-2-yl)-1-benzyl-6-oxo-1,6-dihydropyridine-2-carboxamide], for which, in assay [4], the “Sel cat. B” value is recorded as “++ (10<Ki(cathepsin B)/Ki(calpain)≦30)”. Moreover, the Ki in assay [2] lay in the range of 50 to 100 nM. The “Sel cat. S” value in assay [3] is on record as “+ (10<Ki(cathepsin S)/Ki(calpain)≦30)”. In the case of `NC(=O)C(=O)C(Cc1ccccc1)NC(=O)[C@H]1CCC(=O)N1Cc1ccc2ccccc2c1` (stereo partly drawn) [Example 12, (2R)—N-(4-Amino-3,4-dioxo-1-phenylbutan-2-yl)-1-(naphthalen-2-ylmethyl)-5-oxopyrrolidine-2-carboxamide], the “Sel cat. K” value in assay [1] is on record as “+ (5<Ki(cathepsin K)/Ki(calpain)≦10)”. Also, the Ki in assay [2] was less than 50 nM. Also, in assay [3], the “Sel cat. S” value is “+ (10<Ki(cathepsin S)/Ki(calpain)≦30)”. `CN1C[C@H](C(=O)NC(Cc2ccccc2)C(=O)C(N)=O)N(Cc2ccccc2)C1=O` (stereo partly drawn) [Example 18, (4R)—N-(4-Amino-3,4-dioxo-1-phenylbutan-2-yl)-3-benzyl-1-methyl-2-oxoimidazolidine-4-carboxamide]: the “Sel cat. B” value in assay [4] is “+++ (Ki(cathepsin B)/Ki(calpain) ratio of >30)”. Moreover, the Ki in assay [2] is 100 to 600 nM. On to `O=C(NCc1nc2ccccc2s1)C(=O)C(Cc1ccccc1)NC(=O)[C@H]1CCC(=O)N1Cc1ccccc1` (stereo partly drawn) [Example 53, (2R)—N-(4-(Benzo[d]thiazol-2-ylmethylamino)-3,4-dioxo-1-phenylbutan-2-yl)-1-benzyl-5-oxopyrrolidine-2-carboxamide], for which, in assay [2], the Ki was 50 to 100 nM. On the same count and under the same terms, as for `O=C(NC[C@@H]1CCCO1)C(=O)C(Cc1ccccc1)NC(=O)[C@H]1CCC(=O)N1Cc1ccccc1` (stereo partly drawn) [Example 70, (2R)-1-Benzyl-N-(3,4-dioxo-1-phenyl-4-(((S)-tetrahydrofuran-2-yl)methylamino)-butan-2-yl)-5-oxopyrrolidine-2-carboxamide], the figure is 50 to 100 nM.
